Test results: PubChem BioAssay (NCI)
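Test compounds were applied to cells in 96-well plates for 48 hours at 5 doses. The concentration for 50% growth inhibition is given as GI50. TGI: total growth inhibition.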

Key:
Experiment in all cases: NCI-60 cell line screen, 48 h
OVCAR-8 ovarian = system: OVCAR-8 ovarian
UACC-257 melanoma = system: UACC-257 melanoma
HOP-62 NSCLC = system: HOP-62 NSCLC
SK-MEL-2 melanoma = system: SK-MEL-2 melanoma
SN12C renal = system: SN12C renal
MALME-3M melanoma = system: MALME-3M melanoma
A498 renal = system: A498 renal
TK-10 renal = system: TK-10 renal
UACC-62 melanoma = system: UACC-62 melanoma
IGROV1 ovarian = system: IGROV1 ovarian

Structure (SMILES)	GI50 (OVCAR-8 ovarian) [µM]	TGI (OVCAR-8 ovarian) [µM]	GI50 (UACC-257 melanoma) [µM]	TGI (UACC-257 melanoma) [µM]	GI50 (HOP-62 NSCLC) [µM]	TGI (HOP-62 NSCLC) [µM]	GI50 (SK-MEL-2 melanoma) [µM]	TGI (SK-MEL-2 melanoma) [µM]	GI50 (SN12C renal) [µM]	TGI (SN12C renal) [µM]	GI50 (MALME-3M melanoma) [µM]	TGI (MALME-3M melanoma) [µM]	GI50 (A498 renal) [µM]	TGI (A498 renal) [µM]	GI50 (TK-10 renal) [µM]	TGI (TK-10 renal) [µM]	GI50 (UACC-62 melanoma) [µM]	TGI (UACC-62 melanoma) [µM]	GI50 (IGROV1 ovarian) [µM]	TGI (IGROV1 ovarian) [µM]
CCOC(=O)c1cc(-c2ccc([N+](=O)[O-])cc2)n(-c2ccc(C(=O)O)c(O)c2)c1C	5.29	43.7	9.2	22	7.55	23.3	11.5	24.7	6.73	22.6	2.23	12.5	10.1	21.9	6.18	20	3.95	15.4	4.42	19.2
CC1(C)N=C(N)N=C(N)N1c1ccc(CCCCc2ccc(S(=O)(=O)F)cc2Cl)c(Cl)c1	–	261	–	64	–	47.2	–	20.3	–	90.3	–	33.8	–	261	–	231	–	46.9	–	106
O=C1NC(=O)C2C(=O)NC(=O)C1C2(c1ccccc1)c1ccc(Cl)cc1 (stereo not given)	–	> 100	–	> 100	–	> 100	–	> 100	–	> 100	–	> 100	–	> 100	–	> 100	–	> 100	–	> 100
N#Cc1nc(-c2ccc(F)cc2)oc1S(=O)(=O)N1CCOCC1	4.71	30.2	7	20.7	10.8	37.9	13.4	27.5	1.77	4.1	1.7	4.23	15.6	32	1.75	3.26	4.79	17.6	3.68	14.6
O=C1CCC(NC(=O)c2ccccc2)C(=O)N1 (stereo not given)	–	> 100	–	> 100	–	> 100	–	> 100	–	> 100	–	> 100	–	> 100	–	> 100	–	> 100	–	> 100
C[Si](C)(C)c1ccc(CC2(Cc3ccc([Si](C)(C)C)cc3)CCNC2)cc1	–	3.35	–	5.41	–	6	–	3.41	–	3.11	–	11.6	–	2.91	–	35.5	–	3.96	–	7.12
COc1ccc(CN2CCCC(C(=O)c3ccc(C(F)(F)F)cc3)C2)c(O)c1 (stereo not given)	36.6	> 100	24.2	74.4	29.1	> 100	27.5	65.8	24.4	89.3	18.2	35.5	0.0189	33.1	31.3	88.7	12.4	31.3	52.6	> 100
CN1CCCNCCN(CCc2ccccn2)CCCN(C)CC1	–	> 100	–	> 100	–	> 100	–	> 100	–	> 100	–	> 100	–	> 100	–	> 100	–	> 100	–	> 100
Cc1cccc(C(C)(C)C)c1NC(=O)C(=O)Cc1nc2ccccc2s1	–	> 100	–	> 100	–	> 100	–	> 100	–	> 100	–	> 100	–	> 100	–	> 100	–	> 100	–	> 100
CN(C)S(=O)(=O)Nc1ccccn1	–	> 100	–	> 100	–	> 100	–	> 100	–	> 100	–	> 100	–	> 100	–	> 100	–	> 100	–	> 100
N#Cc1cnn2ccn(C3OC(COC(=O)c4ccccc4)C(OC(=O)c4ccccc4)C3OC(=O)c3ccccc3)c12 (stereo not given)	–	> 46.4	–	> 21.5	–	> 21.5	–	0.843	–	> 21.5	–	> 21.5	–	21.5	–	> 31.6	–	> 21.5	–	> 21.5
COc1cc2c(c(OC)c1OC)-c1ccc(NCc3ccccc3)c(=O)cc1[C@@H](NC(C)=O)CC2	0.444	65	0.671	37.5	0.413	16.9	0.643	22.8	0.629	45.3	0.72	40.2	0.248	0.771	4.82	> 100	0.526	22.4	0.595	16.8
O=C1CSC(N2CCN(c3cccc(Cl)c3)CC2)=N1	> 100	> 100	> 100	> 100	> 100	> 100	> 100	> 100	> 100	> 100	> 100	> 100	> 100	> 100	> 100	> 100	> 100	> 100	> 100	> 100
CN(C)c1ccc2c(c1)oc(=O)c1ccccc12	–	25.4	–	28.3	–	65.6	–	23.2	–	25.8	–	24.5	–	33	–	40	–	30.4	–	36.7
Cc1c(N2C(=O)/C(=C\c3ccccc3O)N=C2c2ccccc2)c(=O)n(-c2ccccc2)n1C	63.2	> 100	> 100	> 100	19.4	46.1	> 100	> 100	> 100	> 100	49.1	> 100	> 100	> 100	33.4	> 100	53.9	> 100	23.8	> 100
Cn1c(-c2nonc2N)nc2cnccc21	> 25	> 25	> 25	> 25	> 25	> 25	> 25	> 25	> 25	> 25	> 25	> 25	16	> 25	11.3	> 25	> 25	> 25	> 25	> 25
COC(=O)c1c2c(c(C)[n+]([O-])c1C)C(=O)C=CC2=O	0.339	1.24	1.57	3.34	0.744	2.27	1.89	3.99	1.62	3.1	1.53	2.92	3.58	13.9	2.74	7.74	1.63	3.21	1.74	4.25
COc1cccc(-c2nn(-c3ccccc3)cc2-c2ccnc(NCCCNS(=O)(=O)c3cccc(F)c3)c2)c1	3.93	> 100	5.12	39.3	10.4	> 100	2.59	8.32	5.37	> 100	5.16	> 100	3.52	> 100	5.32	> 100	4.65	> 100	4.96	> 100
